Test results as given in patent publication US7323596B2, “Antimicrobial agents” (De Novo Pharmaceuticals Ltd., priority 2000, dated 2008).
pIC50: −log10 of the molar value. Values after ≈ are worked out from the molar mass of the structure shown.

Columns and labels:
[1] = tested on: Haemophilia influenza; experiment: MIC by standard agar plate dilution method; type: cell-based
Experimental: The susceptibilities of strains of bacteria to the compound of Example 1 were determined by a standard agar plate dilution method following recommendations in British Society for Antimicrobial Chemotherapy Working Party. 1991, “A guide to sensitivity testing British Society for Antimicrobial Chemotherapy, London, United Kingdom”. Briefly, Iso-Sensitest agar (pH 7.2: Oxoid, United Kingdom) is employed, supplemented with 5% horse blood (Oxoid) and 20 μg of NAD (Sigma) per ml are added to support growth of fastidious bacteria. The inoculum used is approximately 10^4 colony forming units of each isolate contained in a volume of 1 μl. Plates are incubated 18 to 24 hr in air, or for fastidious bacteria an atmosphere enriched with 4-6% carbon dioxide at 35° C. The MIC is determined as the lowest concentration of an Antimicrobial tested that inhibited growth of the inoculum, disregarding a single persisting colony or faint haze caused by the inoculation.

[2] = target: E coli PDF (Ni) (Escherichia coli, UniProt P0A6K3); experiment: inhibition of the PDF E. coli (Ni) enzyme; type: biochemical; conditions: Ni form of E. coli PDF enzyme
Experimental: Examples 2-5 were prepared in a manner analogous to example 1. Also shown is there inhibition of the PDF E. coli(Ni) enzyme.

Sequence of E coli PDF (Ni) (P0A6K3 whole entry): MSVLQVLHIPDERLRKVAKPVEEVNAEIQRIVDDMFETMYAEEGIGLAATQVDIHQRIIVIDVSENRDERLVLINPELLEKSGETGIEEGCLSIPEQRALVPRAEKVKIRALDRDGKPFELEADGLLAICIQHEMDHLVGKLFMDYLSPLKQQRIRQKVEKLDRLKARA

Structure (SMILES) | MIC [1] [µg/mL] | pIC50 [2]
CCCC[C@H](CN(O)C=O)NC(=O)Cc1cccc2ccccc12 [Example 1, N-{1R-[(Formyl-hydroxy-amino)-methyl]-pentyl}2-naphthalen-1-yl-acetamide] | 0.5 to 2 (≈ 1.52 to 6.09 µM) | 
CCCC[C@H](CN(O)C=O)NC(=O)c1coc2ccccc2c1=O [Example 5, 4-Oxo-4H-chromene-3-carboxylic acid {1R-[(formyl-hydroxy-amino)-methyl]-pentyl}amide] |  | 6.70
CCCC[C@H](CN(O)C=O)NC(=O)c1cn(CC)c2ccc(Cl)cc2c1=O [Example 4, 6-Chloro-1-ethyl-4-oxo-1,4-dihydro-quinoline-3-carboxylic acid {1R[(formyl-hydroxy-amino)-methyl]-pentyl}-amide] |  | 7.70
CCCC[C@H](CN(O)C=O)NC(=O)c1cn(C2CCCCC2)c2ccccc2c1=O [Example 3, 1-Cyclohexyl-4-oxo-1,4-dihydro-quinoline-3-carboxylic acid {1R[(formyl-hydroxy-amino)-methyl]-pentyl}-amide] |  | 7.22
CCCC[C@H](CN(O)C=O)NC(=O)c1cn(CC)c2cc3c(cc2c1=O)OCO3 [Example 2, 5-Ethyl-8-oxo-5,8-dihydro-[1,3]dioxolo[4,5]quinoline-7-carboxylic acid {1R-[(formyl-hydroxy-amino)-methyl]-pentyl}amide] |  | 7.52
